Measured values taken from US20110118314A1, “PIPERIDINE ANALOGS AS GLYCOGEN SYNTHASE ACTIVATORS” (priority 2009, published 2011).

System: glycogen synthase
Experiment: Glycogen Synthase (GS) Assay
Assay type: biochemical
Conditions: for EC50: compound concentration needed to give 50% maximum activation; for GS SC200: compound concentration needed to stimulate 200% of the enzyme activity
Method: The following tests were carried out in order to determine the activity of the compounds of formula (I).
Twelve μL per well of substrate solution containing glycogen (4.32 mg/mL), 2.67 mM UDP-glucose, 21.6 mM phospho(enol)pyruvate and 2.7 mM NADH in 30 mM glycylglycine, pH 7.3 buffer was added into a polystyrene 384-well assay plate (BD Biosciences).
Compound solutions (8 μL/well) at various concentrations (0-300 μM) were added to the assay plate (columns 5-24). Compound solution contains 30 mM glycylglycine, pH 7.3, 40 mM KCl, 20 mM MgC12, 9.2% DMSO, with (columns 15-24) or without (columns 5-14) 20 mM glucose 6-phosphate.
Enzyme solution (12 μL/well) containing glycogen synthase (16.88 μg/mL), pyruvate kinase (0.27 mg/mL), lactate dehydrogenase (0.27 mg/mL) in 50 mM Tris-HCl, pH 8.0, 27 mM DTT and bovine serum albumin (BSA, 0.2 mg/mL) was added to the assay plate (columns 3-24). As a blank control, enzyme solution without glycogen synthase was added into the top half wells of columns 1-2. To the bottom half wells of columns 1-2 were added a known activator, glucose 6-phosphate (at final concentration 5 mM) in addition to the enzyme solution. The reaction mixture was incubated at room temperature. The assay plate was then read for absorbance at 340 nm on an Envision reader every 3 minutes up to a total of 15 minutes.
The enzyme activity (with or without compound) was calculated by the reaction rate and represented by the optical density change (SOD) per minute. Percent stimulation of glycogen synthase activity by a compound at various concentrations was calculated by the following formula: […]
where Rs is the reaction rate of the enzyme in the presence of compound and Rt is the reaction rate of the enzyme in the absence of compound.
SC200 is defined as the compound concentration that is needed to stimulate 200% of the enzyme activity. EC50 is defined as the compound concentration that is needed to give 50% maximum activation.
Compounds from Example 1 through Example 36 were assayed according to assay procedures described above and the results are listed in Table 1 below: […]

| EC50 | Structure (SMILES) | GS SC200 |
| --- | --- | --- |
| 7.68 µM | COc1cc(F)c(F)cc1-c1ccc(OCC2CCN(C(=O)N(C)CC(=O)NS(C)(=O)=O)C2)cc1 (stereo not drawn) [Example 36, 3-(4′,5′-Difluoro-2′-methoxy-biphenyl-4-yloxymethyl)-pyrrolidine-1-carboxylic acid (2-methanesulfonylamino-2-oxo-ethyl)-methyl-amide] | 0.8 µM |
| 5.78 µM | COc1cc(F)c(F)cc1-c1ccc(OCC2CCCN(C(=O)C3CN(C(C)=O)CC3C(=O)O)C2)cc1 (stereo not drawn) [Example 15, 1-Acetyl-4-[3-(4′,5′-difluoro-2′-methoxy-biphenyl-4-yloxymethyl)-piperidine-1-carbonyl]-pyrrolidine-3-carboxylic acid] | 3.65 µM |
| 4.76 µM | COc1cc(F)c(F)cc1-c1ccc(OC[C@H]2CCCN(C(=O)N(CC(=O)O)Cc3ccccc3)C2)cc1 (single isomer, unassigned) [Example 24] | 1.99 µM |
| 5.35 µM | COc1cc(F)c(F)cc1-c1ccc(OCC2CCCN(C(=O)C(C(=O)O)C(C)(C)C)C2)cc1 (stereo not drawn) [Example 19, 2-[3-(4′,5′-Difluoro-2′-methoxy-biphenyl-4-yloxymethyl)-piperidine-1-carbonyl]-3,3-dimethyl-butyric acid] | 2.21 µM |
| 8.29 µM | COc1cc(F)c(F)cc1-c1ccc(OCC2CCCN(C(=O)N(C)Cc3nnn[nH]3)C2)cc1 (stereo not drawn) [Example 30, 3-(4′,5′-Difluoro-2′-methoxy-biphenyl-4-yloxymethyl)-piperidine-1-carboxylic acid methyl-(1H-tetrazol-5-ylmethyl)-amide] | 1.38 µM |
| 0.95 µM | COc1cc(F)c(F)cc1-c1ccc(OC[C@@H]2CCCN(C(=O)N(CC(=O)O)Cc3ccccc3)C2)cc1 (single isomer, unassigned) [Example 23] | 0.23 µM |
| 6.26 µM | COc1cc(F)c(F)cc1-c1ccc(OCC2CCCN(C(N)=O)C2)cc1 (stereo not drawn) [Example 9, 3-(4′,5′-Difluoro-2′-methoxy-biphenyl-4-yloxymethyl)-piperidine-1-carboxylic acid amide] | 2.22 µM |

| Structure (SMILES) | EC50 | GS SC200 |
| --- | --- | --- |
| COc1cc(F)c(F)cc1-c1ccc(OCC2CCCN(C(=O)[C@H](CC(=O)O)NC(=O)OC(C)(C)C)C2)cc1 (stereo partly drawn) [Example 12, (S)-3-tert-Butoxycarbonylamino-4-[3-(4′,5′-difluoro-2′-methoxy-biphenyl-4-yloxymethyl)-piperidin-1-yl]-4-oxo-butyric acid] | 11.1 µM | 3.74 µM |
| COc1cc(F)c(F)cc1-c1ccc(OCC2CCCN(C(=O)[C@@H](CC(=O)O)NC(=O)OC(C)(C)C)C2)cc1 (stereo partly drawn) [Example 10, (R)-3-tert-Butoxycarbonylamino-4-[3-(4′,5′-difluoro-2′-methoxy-biphenyl-4-yloxymethyl)-piperidin-1-yl]-4-oxo-butyric acid] | 5.71 µM | 1.51 µM |
